This note sets out measurements from patent US8697661B2, “Use of spinosyns and spinosyn compositions against herpesviridae viral infections” (priority 2009, dated 2014).

The subject of data set [1] is macrophage mice cell type J774. To be noted: J774 CC50 over amastigote IC50.
The nature of the next data set: in vitro. The note with it: mouse.
Data set [2] concerns Leishmania donovati MON-2 promastigotes. Put plainly: In vitro test against Leishmania promastigotes. The note with it: Leishmania, read-out: Promastigotes IC50.
Data set [3] relates to Leishmania donovati MON-2 amastigotes. Put plainly: In vitro test against Leishmania amastigotes in J774 macrophages. To be noted: Leishmania, J774, read-out: Amastigotes IC50.

For orientation: IC50 means the point on the concentration scale where inhibition reaches its midpoint. Take `NC[C@@H]1O[C@H](O[C@H]2[C@@H](O)[C@H](O[C@@H]3[C@@H](O)[C@H](N)C[C@H](N)[C@H]3O[C@H]3O[C@H](CO)[C@@H](O)[C@H](O)[C@H]3N)O[C@@H]2CO)[C@H](N)[C@@H](O)[C@@H]1O` [Aminosidine]: the “Selectivity Index CC50/IC50ama” value in data set [1] stood at 34.96. This molecule registered a CC50 in the data set “in vitro” of 448 ± 8.6 µM. Besides, the IC50 in data set [2] amounted to 5.6 ± 0.6 µM; in data set [3], 12.8 ± 4 µM.

On to `CCCCCCCCCCCCCCCCOP(=O)([O-])OCC[N+](C)(C)C` [Miltefosine], for which the “Selectivity Index CC50/IC50ama” value in data set [1] came to 39.04. This molecule gave a CC50 in the data set “in vitro” of 32.8 ± 5.1 µM. Also, the IC50 in data set [2] came out at 0.87 ± 0.04 µM; in data set [3] it was 0.84 ± 0.04 µM.
